Tests used:
mouse TTR gene = assay: In vivo editing in mouse liver, LNP with Cas9 mRNA and sgRNA G282, NGS; details: for Mean % Indel: Table 5
Method: (§1) LNPs were prepared using various amine lipids in a 4-component lipid system consisting of an ionizable lipid (e.g. an amine lipid), DSPC, cholesterol and PEG-2k-DMG. In assays for percent liver editing in mice, Cas9 mRNA and chemically modified sgRNA targeting a mouse sequence were formulated in LNPs, at either a 1:1 w/w ratio or a 1:2 w/w ratio.
(§2) The lipid components were dissolved in 100% ethanol with the lipid component molar ratios described below. The chemically modified sgRNA and Cas9 mRNA were combined and dissolved in 25 mM citrate, 100 mM NaCl, pH 5.0, resulting in a concentration of total RNA cargo of approximately 0.45 mg/mL. The LNPs were formulated with an N/P ratio of about 6, with the ratio of chemically modified sgRNA: Cas9 mRNA at either a 1:1 or 1:2 w/w ratio as described below.
(§3) CD-1 female mice, ranging from 6-10 weeks of age were used in each study. Animals were weighed and grouped according to body weight for preparing dosing solutions based on group average weight. LNPs were dosed via the lateral tail vein in a volume of 0.2 mL per animal (approximately 10 mL per kilogram body weight). The animals were periodically observed for adverse effects for at least 24 hours post dose.
(§4) For studies measuring in vivo editing in liver, CD-1 female mice were dosed at 0.1 mpk unless otherwise noted. Animals were euthanized at 6 or 7 days by exsanguinationvia cardiac puncture under isoflourane anesthesia. Liver tissue was collected from each animal for DNA extraction and analysis. Blood was collected into serum separator tubes or into tubes containing buffered sodium citrate for plasma as described herein. Cohorts of mice were measured for editing by Next-Generation Sequencing (NGS).
(§5) In brief, to quantitatively determine the efficiency of editing at the target location in the genome, genomic DNA was isolated and deep sequencing was utilized to identify the presence of insertions and deletions introduced by gene editing.
(§6) PCR primers were designed around the target site (e.g., B2M), and the genomic area of interest was amplified. Additional PCR was performed according to the manufacturer's protocols (Illumina) to add the necessary chemistry for sequencing. The amplicons were sequenced on an Illumina MiSeq instrument. The reads were aligned to the relevant reference genome (e.g., GRCm38) after eliminating those having low quality scores. The resulting files containing the reads were mapped to the reference genome (BAM files), where reads that overlapped the target region of interest were selected and the number of wild type reads versus the number of reads which contain an insertion, substitution, or deletion was calculated.
(§7) The editing percentage (e.g., the “editing efficiency” or “percent editing”) is defined as the total number of sequence reads with insertions or deletions over the total number of sequence reads, including wild type.
(§8) We assessed in vivo editing efficiency for materials delivered with formulations including various amine lipid compounds. Editing was measured using either G282 (SEQ ID No: 1) which targets the mouse TTR gene or G650 (SEQ ID No. 2) which targets the mouse B2M gene. Lipids described above were assessed for efficacy through in vivo editing experiments. LNPs were formulated at a 1:1 w/w ratio of sgRNA to Cas9 mRNA, and at an N/P ratio of about 6. Molar concentrations of lipids in the lipid component of the LNPs are expressed as mol % amine lipid/DSPC/cholesterol/PEG-2k-DMG, e.g. 50/10/38.5/1.5. The final LNPs were characterized to determine the encapsulation efficiency, polydispersity index, and average particle size according to the analytical methods provided above. Analysis of average particle size, polydispersity (PDI), total RNA content and encapsulation efficiency of RNA are shown in Table 2.
To assess whether the editing was dose responsive, experiments were performed in vivo at various LNP dose levels. […]

mouse B2M gene = assay: In vivo editing in mouse liver, LNP with Cas9 mRNA and sgRNA G650, NGS; details: Table 3; guide G650; CD-1 female mice, 0.1 mpk i.v., liver at 6 or 7 days; Exp. 2-7
Method: as §1, §2, §3, §4, §5, §6, §7, §8

[1] = Tolerability in rats: liver enzyme panel 24 hours post dose; format: in vivo, rat; details: Sprague Dawley female rats, 6 mg/kg, serum
Method: For efficacy, Sprague Dawley female rats were dosed i.v. at 0.1 mpk or 0.03 mpk. 6-7 days post dose, rats were euthanized by CO2 asphyxiation. Blood was collected into serum separator tubes. Liver biopsy processed for gDNA and assessed for editing by NGS methods described in Example 115. Results are shown in Table 11 and FIGS. 12A and 12B. For tolerability, Sprague Dawley female rats were dosed at 6 mpk and 24 hours post dose the animals were euthanized by CO2 asphyxiation. Blood was collected into serum separator tubes and sent to an external CRO for quantitation of liver enzymes via a liver enzyme panel.

rat TTR = assay: Serum TTR levels in rats after LNP delivery; format: in vivo; details: Table 11, G534, Sprague Dawley female rats i.v.
TTR in HUH7 cells = assay: In vitro editing in HUH7 cells, LNP with Cas9 mRNA and sgRNA G000502, NGS; format: cell-based, human; details: Table 14; 2000 ng RNA per well, cells harvested 6 hours post-transfection, biological duplicate, G000502 target locus
Method: A series of compounds based on Compound 46 that vary by the inclusion of a C4-12 alkyl at the R^3 position of Formula (IA) (as illustrated in FIG. 13A) were tested for in vitro editing. The human hepatocellular carcinoma cell line […] (Japanese Collection of Research Bioresources Cell Bank, Cat. JCRB0403) was cultured in DMEM media supplemented with 10% fetal bovine serum and 1% Penicillin-Streptomycin. Cells were plated at a density of 20,000 cells/well in a 96-well plate 24 hours prior to transfection (˜80% confluent at time of transfection). The LNPs were formulated at a 1:2 w/w ratio of sgRNA and Cas9 mRNA using the cross flow procedure with lipid molar compositions as described in Table 13 at an N/P ratio of 6.0. LNP compositions were analyzed for average particle size, polydispersity (pdi), total RNA content and encapsulation efficiency of RNA as described in Example 115. Analysis of average particle size, polydispersity (PDI), total RNA content and encapsulation efficiency of RNA are shown in Table 13. LNPs were diluted into media, incubated for 5 minutes at 37 C and pipetted onto cells at a dose of 2000 ng RNA per well. Each condition was assayed in biological duplicate. Cells were harvested post-transfection at 6 hours. Genomic DNA was extracted using 50 μL/well BuccalAmp DNA Extraction solution (Epicentre, Cat. QE09050) according to manufacturer's protocol. All DNA samples were subjected to PCR and subsequent NGS analysis for editing at the G000502 target locus, as described above. As shown in Table 14 and FIG. 13B, all compounds tested were efficacious for in vitro editing.

[2] = Table 3, guide G282, CD-1 female mice, 0.1 mpk i.v., liver at 6 or 7 days, Exp. 1, 8, 9, 10
[3] = G00282, CD-1 female mice i.v., dose 0.1 mpk, liver
[4] = G00282, CD-1 female mice i.v., dose 0.3 mpk, liver

Question: Which “Editing Mean % Indel” value (mouse TTR gene; [2]) does the source give for `CCCCC/C=C\C/C=C\CCCCCCCC(=O)OCC(COC(=O)CCCCCCC/C=C\C/C=C\CCCCC)OC(=O)CCC(CCCCCCCCCCCC)OC(=O)OCCCN(C)C` (stereo not shown) [Compound 1, 2-((4-(((3-(dimethylamino)propoxy)carbonyl)oxy)hexadecanoyl)oxy)propane-1,3-diyl (9Z,9′Z,12Z,12′Z)-bis(octadeca-9,12-dienoate)] here?
Answer: Its value is 13.1%.

Question: With `CCCCC/C=C\C/C=C\CCCCCCCC(=O)OCC(COC(=O)CCCCCCC/C=C\C/C=C\CCCCC)OC(=O)CCC(CCCCCCCCCCCC)OC(=O)OCCCN1CCCC1` (stereo not shown) [Compound 5, 2-((4-(((3-(pyrrolidin-1-yl)propoxy)carbonyl)oxy)hexadecanoyl)oxy)propane-1,3-diyl (9Z,9′Z,12Z,12′Z)-bis(octadeca-9,12-dienoate)] as the compound, how does the “Editing Mean % Indel” value (mouse TTR gene; Table 7, G00282, CD-1 female mice i.v., dose 0.1 mpk, liver) read?
Answer: Its value is 26.1%.

Question: What about the “Editing Mean % Indel” value (mouse TTR gene; Table 7, G00282, CD-1 female mice i.v., dose 0.3 mpk, liver) of the same compound?
Answer: Its value is 52.5%.

Question: And the “efficacy for in vivo editing (in words)” value (mouse TTR gene; mouse liver, Examples 116 and 118)?
Answer: Its value is “efficacious”.

Question: What about the “Editing Mean % Indel” value (mouse B2M gene) of the same compound?
Answer: The value was 17.5%.

Question: With `CCCCC/C=C\C/C=C\CCCCCCCC(=O)OCC(COC(=O)CCCCCCC/C=C\C/C=C\CCCCC)OC(=O)CCC(CCCCCCCCCCCC)OC(=O)NCCN(C)CC` (stereo not shown) [Compound 7, 2-((4-(((2-(ethyl(methyl)amino)ethyl)carbamoyl)oxy)hexadecanoyl)oxy)propane-1,3-diyl (9Z,9′Z,12Z,12′Z)-bis(octadeca-9,12-dienoate)] as the compound, how does the “Mean % Indel” value (mouse TTR gene; [3]) read?
Answer: Its value is 49.1%.

Question: What about the “Mean % Indel” value (mouse TTR gene; [4]) of the same compound?
Answer: Its value is 69.4%.

Question: And the “Editing Mean % Indel” value (mouse B2M gene)?
Answer: The value was 22.6%.

Question: Which “Editing Mean % Indel” value (mouse TTR gene; [2]) does the source give for `CCCCC/C=C\C/C=C\CCCCCCCC(=O)OCC(COC(=O)CCCCCCC/C=C\C/C=C\CCCCC)OC(=O)CCC(CCCCCCCCCCCC)OC(=O)NCC1CCCN1C` (stereo not shown) [Compound 9, 2-((4-((((1-methylpyrrolidin-2-yl)methyl)carbamoyl)oxy)hexadecanoyl)oxy) propane-1,3-diyl (9Z,9′Z,12Z,12′Z)-bis(octadeca-9,12-dienoate)] here?
Answer: The value was 44.1%.

Question: And the “Mean % Indel” value (mouse TTR gene; [3])?
Answer: Its value is 50.6%.

Question: And the “Mean % Indel” value (mouse TTR gene; [4])?
Answer: Its value is 64.5%.

Question: What about the “Editing Mean % Indel” value (mouse B2M gene) of the same compound?
Answer: Its value is 20.3%.

Question: With `CCCCC/C=C\C/C=C\CCCCCCCC(=O)OCC(COC(=O)CCCCCCC/C=C\C/C=C\CCCCC)OC(=O)CCC(CCCCCCCC)OC(=O)NCC1CCCN1C` (stereo not shown) [Compound 35, 2-((4-((((1-methylpyrrolidin-2-yl)methyl)carbamoyl)oxy)dodecanoyl)oxy) propane-1,3-diyl (9Z,9′Z,12Z,12′Z)-bis(octadeca-9,12-dienoate)] as the compound, how does the “Editing Mean % Indel” value (mouse B2M gene) read?
Answer: Its value is 35.5%.

Question: Which “Editing Mean % Indel” value (mouse B2M gene) does the source give for `CCCCC/C=C\C/C=C\CCCCCCCC(=O)OCC(COC(=O)CCCCCCC/C=C\C/C=C\CCCCC)OC(=O)CCC(CCCCCCCC)OC(=O)OCCCN1CCCC1` (stereo not shown) [Compound 36, 2-((4-(((3-(pyrrolidin-1-yl)propoxy)carbonyl)oxy)dodecanoyl)oxy)propane-1,3-diyl (9Z,9′Z,12Z,12′Z)-bis(octadeca-9,12-dienoate)] here?
Answer: Its value is 30.0%.

Question: For `CCCCC/C=C\C/C=C\CCCCCCCC(=O)OCC(COC(=O)CCCCCCC/C=C\C/C=C\CCCCC)OC(=O)CCC(CCCCCCCCCC)OC(=O)NCCN(C)CC` (stereo not shown) [Compound 39, 2-((4-(((2-(ethyl(methyl)amino)ethyl)carbamoyl)oxy)tetradecanoyl)oxy)propane-1,3-diyl (9Z,9′Z,12Z,12′Z)-bis(octadeca-9,12-dienoate)], which “Editing Mean % Indel” value (mouse TTR gene; [2]) is on record?
Answer: Its value is 36.5%.

Question: For `CCCCC/C=C\C/C=C\CCCCCCCC(=O)OCC(COC(=O)CCCCCCC/C=C\C/C=C\CCCCC)OC(=O)CCC(CCCCCC)OC(=O)NCCN(C)CC` (stereo not shown) [Compound 40, 2-((4-(((2-(ethyl(methyl)amino)ethyl)carbamoyl)oxy)decanoyl)oxy)propane-1,3-diyl (9Z,9′Z,12Z,12′Z)-bis(octadeca-9,12-dienoate)], which “Editing Mean % Indel” value (mouse TTR gene; [2]) is on record?
Answer: Its value is 44.7%.

Question: With `CCCCC/C=C\C/C=C\CCCCCCCC(=O)OCC(COC(=O)CCCCCCC/C=C\C/C=C\CCCCC)OC(=O)CCC(CCCCCC)OC(=O)OCCCN1CCCC1` (stereo not shown) [Compound 45, 2-((4-(((3-(pyrrolidin-1-yl)propoxy)carbonyl)oxy)decanoyl)oxy)propane-1,3-diyl (9Z,9′Z,12Z,12′Z)-bis(octadeca-9,12-dienoate)] as the compound, how does the “ALP (U/L)” value [1] read?
Answer: Its value is 439.8 U/L.

Question: What about the “ALT (U/L)” value [1] of the same compound?
Answer: The value was 163.2 U/L.

Question: What about the “AST (U/L)” value [1] of the same compound?
Answer: Its value is 681 U/L.

Question: What about the “Creatine kinase (U/L)” value [1] of the same compound?
Answer: Its value is 1103 U/L.

Question: What about the “GGT (U/L)” value [1] of the same compound?
Answer: The value was 2.4 U/L.

Question: What about the “Total Bilirubin” value [1] of the same compound?
Answer: Its value is 0.3 mg/dL.

Question: And the “Serum TTR” value (rat TTR; dose 0.03 mpk)?
Answer: The value was 910.4 µg/mL.

Question: And the “Serum TTR % TSS” value (rat TTR; dose 0.03 mpk)?
Answer: Its value is 110% TSS.

Question: And the “Serum TTR” value (rat TTR; dose 0.1 mpk)?
Answer: Its value is 270.7 µg/mL.

Question: What about the “Serum TTR % TSS” value (rat TTR; dose 0.1 mpk) of the same compound?
Answer: The value was 32% TSS.

Question: With `CCCCC/C=C\C/C=C\CCCCCCCC(=O)OCC(COC(=O)CCCCCCC/C=C\C/C=C\CCCCC)OC(=O)CCC(CCCCCCCC)OC(=O)NCCN1CCCC1` (stereo not shown) [Compound 51, 2-((4-(((2-(pyrrolidin-1-yl)ethyl)carbamoyl)oxy)dodecanoyl)oxy)propane-1,3-diyl (9Z,9′Z,12Z,12′Z)-bis(octadeca-9,12-dienoate)] as the compound, how does the Editing (TTR in HUH7 cells) read?
Answer: Its Editing is 69.0%.

Question: Which Editing (TTR in HUH7 cells) does the source give for `CCCCC/C=C\C/C=C\CCCCCCCC(=O)OCC(COC(=O)CCCCCCC/C=C\C/C=C\CCCCC)OC(=O)CCC(CCCCC)OC(=O)NCCN1CCCC1` (stereo not shown) [Compound 72, 2-((4-(((2-(pyrrolidin-1l-yl)ethyl)carbamoyl)oxy)nonanoyl)oxy)propane-1,3-diyl (9Z,9′Z,12Z,12′Z)-bis(octadeca-9,12-dienoate)] here?
Answer: The Editing was 65.8%.

Reference: patent publication US12077483B2, “Modified amine lipids” (Intellia Therapeutics, Inc., priority 2018, dated 2024)
